Results: the supplement of paper PMC8882468

Key:
Test in all cases: CTG-3D luminescence at 96 h relative to day-0 seeding control (ratio to day 0); higher = more growth / less cytotoxicity
[1] = test system: HCI-012 (organoid from a breast cancer xenograft)
Description: (§1)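 PDX-derived breast cancer organoids (PDxO) in 384-well Matrigel plates, 8-point dose (0.000000625-100 uM), 96 h at 37 C; CellTiter-Glo 3D luminescence normalised to the day-0 seeding control (mean of 4 technical replicates over mean of 4 day-0 wells).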

[2] = test system: HCI-016 (organoid from a triple-negative breast cancer xenograft)
Description: as §1

[3] = test system: HCI-015 (organoid from a triple-negative breast cancer xenograft)
Description: as §1

[4] = test system: HCI-011.E2 (organoid from an ER-positive breast cancer xenograft)
Description: as §1

[5] = test system: HCI-024 (organoid from a breast cancer xenograft)
Description: as §1

O=c1[nH]cc(F)c(=O)[nH]1 [5-fluorouracil]
CTG-3D luminescence at 96 h
Settings	12.5 pM	0.00025 µM	0.005 µM	0.1 µM	1 µM	10 µM	100 µM	625 fM
[1], days in culture: 143	2.31	2.12	1.8	2.12	2.07	1.71	0.413	1.96
[1], days in culture: 162	2.26	2.44	1.98	2.86	1.98	2.16	0.425	2.74
[1], days in culture: 201	2.32	2.31	1.56	1.69	2.12	1.21	1.08	1.85
[2], days in culture: 153	3.47	1.65	2.39	2.02	2.17	1.8	1.21	3.05
[2], days in culture: 172	2.33	1.93	1.51	1.52	1.52	1.1	1.12	1.92
[2], days in culture: 190	1.67	1.39	1.63	1.35	1.16	1.1	1.11	1.3
[2], days in culture: 199	1.49	1.49	1.44	1.47	1.68	1.21	1.18	1.73
[3], days in culture: 172	2.81	2	2.42	1.81	1.61	1.12	1.03	2.72
[3], days in culture: 191	2.43	1.43	1.71	0.853	1.35	0.995	0.865	1.37
[3], days in culture: 218	1.85	1.55	1.83	1.77	1.51	1.54	0.999	1.81
[4], days in culture: 74	1.83	2.05	1.91	1.77	2.19	2.63	1.57	1.62
[5], days in culture: 105	1.58	1.5	1.45	1.66	1.59	1.53	0.681	2.03
[5], days in culture: 122	2.23	2.19	1.64	1.97	1.98	2.04	0.857	3.11
[5], days in culture: 163	2.3	2.61	1.89	2.32	2.29	1.9	1.21	2.13

[4]
Settings	CTG-3D luminescence at 96 h
12.5 pM	1.56
0.00025 µM	1.46
0.005 µM	1.7
0.1 µM	1.81
1 µM	1.73
10 µM	2.08
100 µM	1.35
625 fM	1.63
